Reference: patent US9975878B2, “Substituted triazine BMI-1 inhibitors” (PTC Therapeutics, Inc., priority 2013, dated 2018)

Key:
Bmi-1 protein = experiment: Sandwich ELISA Assay: Bmi-1 protein level in HT-1080 cells treated with test compounds; assay type: cell-based
Method in brief: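 HT-1080 cells exposed to compounds (final DMSO 0.5%) for 40-48 h at 37° C, 5% CO2, then lysed. Bmi-1 quantified by sandwich ELISA (mouse anti-Bmi-1 capture, rabbit anti-Bmi-1 detection, HRP anti-rabbit, TMB), read at OD450 with OD570 reference, against recombinant GST-Bmi-1 standard curve (0-8000 pg/mL).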

| SMILES | melting point [°C] | EC50 (Bmi-1 protein) [nM] |
| --- | --- | --- |
| Nc1nc(Nc2ccc(OC(F)F)cc2)nc(-n2c(C(F)F)nc3ccccc32)n1 [Cpd 103, N-[4-(difluoromethoxy)phenyl]-6-[2-(difluoromethyl)-1H-benzimidazol-1-yl]-1,3,5-triazine-2,4-diamine] | 197 to 199 | 10 to 100 |
| Nc1nc(Nc2ccc(C(F)(F)F)nc2)nc(-n2c(CF)nc3ccccc32)n1 [Cpd 111, 6-[2-(fluoromethyl)-1H-benzimidazol-1-yl]-N-[6-(trifluoromethyl)pyridin-3-yl]-1,3,5-triazine-2,4-diamine] | 178 to 180 | 100 to 3000 |
| Nc1nc(Nc2ccc(OC(F)(F)F)cc2)nc(-n2c(C3CC3)nc3c(F)cc(F)cc32)n1 [Cpd 92, 6-(2-cyclopropyl-4,6-difluoro-1H-benzimidazol-1-yl)-N-[4-(trifluoromethoxy)phenyl]-1,3,5-triazine-2,4-diamine] | 213 to 215 | 100 to 3000 |
| Nc1nc(Nc2ccc(OC(F)F)cc2)nc(-n2c(CF)nc3ccccc32)n1 [Cpd 108, N-[4-(difluoromethoxy)phenyl]-6-[2-(fluoromethyl)-1H-benzimidazol-1-yl]-1,3,5-triazine-2,4-diamine] | 166 to 168 | 10 to 100 |
| Nc1nc(Nc2ccc(OC(F)F)c(F)c2)nc(-n2c(CF)nc3ccccc32)n1 [Cpd 109, N-[4-(difluoromethoxy)-3-fluorophenyl]-6-[2-(fluoromethyl)-1H-benzimidazol-1-yl]-1,3,5-triazine-2,4-diamine] | 166 to 168 | 10 to 100 |
| Cc1ccc(Nc2nc(N)nc(-n3c(C)nc4c(F)cc(F)cc43)n2)cc1 [Cpd 186, 6-(4,6-difluoro-2-methyl-1H-benzimidazol-1-yl)-N-(4-methylphenyl)-1,3,5-triazine-2,4-diamine] |  | 1 to 10 |
| Cc1nc2cc(F)c(F)cc2n1-c1nc(N)nc(Nc2ccc(OC(F)F)cc2)n1 [Cpd 11, N-[4-(difluoromethoxy)phenyl]-6-(5,6-difluoro-2-methyl-1H-benzimidazol-1-yl)-1,3,5-triazine-2,4-diamine] |  | 10 to 100 |
| Cc1nc2ccc(Cl)cc2n1-c1nc(N)nc(Nc2ccc(C(F)(F)F)cc2)n1 [Cpd 75, 6-(6-chloro-2-methyl-1H-benzimidazol-1-yl)-N-[4-(trifluoromethyl)phenyl]-1,3,5-triazine-2,4-diamine] |  | 10 to 100 |
| CCc1nc2ccccc2n1-c1cnnc(Nc2ccc(C(F)(F)F)cc2)n1 [Cpd 124, 5-(2-ethyl-1H-benzimidazol-1-yl)-N-[4-(trifluoromethyl)phenyl]-1,2,4-triazin-3-amine] |  | 100 to 3000 |
| N#CCc1nc2ccccc2n1-c1nc(N)nc(Nc2ccc(C(F)(F)F)cc2)n1 [Cpd 119, [1-(4-amino-6-{[4-(trifluoromethyl)phenyl]amino}-1,3,5-triazin-2-yl)-1H-benzimidazol-2-yl]acetonitrile] |  | 100 to 3000 |
| Nc1nc(Nc2ccc(Cl)cc2)nc(-n2c(C3CC3)nc3ccccc32)n1 [Cpd 157, N-(4-chlorophenyl)-6-(2-cyclopropyl-1H-benzimidazol-1-yl)-1,3,5-triazine-2,4-diamine] |  | 10 to 100 |
| Nc1nc(Nc2ccc(C(F)(F)F)cc2)nc(-n2c(C(F)F)nc3cc(F)c(F)cc32)n1 [Cpd 114, 6-[2-(difluoromethyl)-5,6-difluoro-1H-benzimidazol-1-yl]-N-[4-(trifluoromethyl)phenyl]-1,3,5-triazine-2,4-diamine] |  | 100 to 3000 |
| Cc1nc2ccc(Cl)cc2n1-c1nc(N)nc(Nc2ccc(OC(F)F)cc2)n1 [Cpd 81, 6-(6-chloro-2-methyl-1H-benzimidazol-1-yl)-N-[4-(difluoromethoxy)phenyl]-1,3,5-triazine-2,4-diamine] |  | 10 to 100 |
| Nc1nc(Nc2ccc(OC(F)(F)F)cc2)nc(-n2c(C(F)F)nc3ccccc32)n1 [Cpd 106, 6-[2-(difluoromethyl)-1H-benzimidazol-1-yl]-N-[4-(trifluoromethoxy)phenyl]-1,3,5-triazine-2,4-diamine] | 138 to 139 | 10 to 100 |
| Nc1nc(Nc2ccc(C(F)(F)F)cc2)nc(-n2c(C3CC3)nc3cc(F)ccc32)n1 [Cpd 65, 6-(2-cyclopropyl-5-fluoro-1H-benzimidazol-1-yl)-N-[4-(trifluoromethyl)phenyl]-1,3,5-triazine-2,4-diamine] |  | 100 to 3000 |
| CCc1nc2ccccc2n1-c1nc(N)nc(Nc2ccc(OC(F)F)cc2)n1 [Cpd 31, N-[4-(difluoromethoxy)phenyl]-6-(2-ethyl-1H-benzimidazol-1-yl)-1,3,5-triazine-2,4-diamine] |  | 10 to 100 |
| Cc1ccc(Nc2nc(N)nc(-n3c(C4CC4)nc4c(F)cccc43)n2)cc1 [Cpd 183, 6-(2-cyclopropyl-4-fluoro-1H-benzimidazol-1-yl)-N-(4-methylphenyl)-1,3,5-triazine-2,4-diamine] |  | 10 to 100 |
| CSc1nc2ccccc2n1-c1nc(N)nc(Nc2ccc(OC(F)F)cc2)n1 [Cpd 121, N-[4-(difluoromethoxy)phenyl]-6-[2-(methylsulfanyl)-1H-benzimidazol-1-yl]-1,3,5-triazine-2,4-diamine] |  | 100 to 3000 |
| Nc1nc(Nc2ccc(OC(F)F)cc2)nc(-c2c(C(F)(F)F)nc3ccc(F)cn23)n1 [Cpd 73, N-[4-(difluoromethoxy)phenyl]-6-[6-fluoro-2-(trifluoromethyl)imidazo[1,2-a]pyridin-3-yl]-1,3,5-triazine-2,4-diamine] |  | 10 to 100 |
| Cc1nc2ncc(F)cc2n1-c1nc(N)nc(Nc2ccc(OC(F)F)cc2)n1 [Cpd 78, N-[4-(difluoromethoxy)phenyl]-6-(6-fluoro-2-methyl-1H-imidazo[4,5-b]pyridin-1-yl)-1,3,5-triazine-2,4-diamine] |  | 100 to 3000 |

Second part, the compound after the results:

| melting point [°C] | EC50 (Bmi-1 protein) [nM] | SMILES |
| --- | --- | --- |
| 197 to 199 | 10 to 100 | Nc1nc(Nc2ccc(C(F)(F)F)cc2)nc(-n2c(C(F)F)nc3ccccc32)n1 [Cpd 102, 6-[2-(difluoromethyl)-1H-benzimidazol-1-yl]-N-[4-(trifluoromethyl)phenyl]-1,3,5-triazine-2,4-diamine] |
| 201 to 203 | 10 to 100 | Nc1nc(Nc2ccc(OC(F)F)c(F)c2)nc(-n2c(C(F)F)nc3ccccc32)n1 [Cpd 104, N-[4-(difluoromethoxy)-3-fluorophenyl]-6-[2-(difluoromethyl)-1H-benzimidazol-1-yl]-1,3,5-triazine-2,4-diamine] |
| 128 to 130 | 10 to 100 | Nc1nc(Nc2ccc(OC(F)F)nc2)nc(-n2c(C3CC3)nc3c(F)cc(F)cc32)n1 [Cpd 91, 6-(2-cyclopropyl-4,6-difluoro-1H-benzimidazol-1-yl)-N-[6-(difluoromethoxy)pyridin-3-yl]-1,3,5-triazine-2,4-diamine] |
| 181 to 183 | 10 to 100 | Nc1nc(Nc2ccc(OC(F)F)cc2)nc(-n2c(C3CC3)nc3c(F)cc(F)cc32)n1 [Cpd 89, 6-(2-cyclopropyl-4,6-difluoro-1H-benzimidazol-1-yl)-N-[4-(difluoromethoxy)phenyl]-1,3,5-triazine-2,4-diamine] |
| 196 to 198 | 10 to 100 | Nc1nc(Nc2ccc(OC(F)F)c(F)c2)nc(-n2c(C3CC3)nc3c(F)cc(F)cc32)n1 [Cpd 90, 6-(2-cyclopropyl-4,6-difluoro-1H-benzimidazol-1-yl)-N-[4-(difluoromethoxy)-3-fluorophenyl]-1,3,5-triazine-2,4-diamine] |
|  | 1 to 10 | CCc1nc2c(F)cccc2n1-c1nc(N)nc(Nc2ccc(Br)cc2)n1 [Cpd 216, N-(4-bromophenyl)-6-(2-ethyl-4-fluoro-1H-benzimidazol-1-yl)-1,3,5-triazine-2,4-diamine] |
|  | 1 to 10 | CCc1nc2ccccc2n1-c1nc(N)nc(Nc2ccc(OC)cc2)n1 [Cpd 159, 6-(2-ethyl-1H-benzimidazol-1-yl)-N-(4-methoxyphenyl)-1,3,5-triazine-2,4-diamine] |
|  | 100 to 3000 | Cc1nc2c(F)cc(F)cc2n1-c1nc(N)nc(Nc2ccc(Cl)cc2)n1 [Cpd 187, N-(4-chlorophenyl)-6-(4,6-difluoro-2-methyl-1H-benzimidazol-1-yl)-1,3,5-triazine-2,4-diamine] |
|  | 10 to 100 | FC(F)(F)c1ccc(Nc2nncc(-n3c(C4CC4)nc4ccccc43)n2)cc1 [Cpd 133, 5-(2-cyclopropyl-1H-benzimidazol-1-yl)-N-[4-(trifluoromethyl)phenyl]-1,2,4-triazin-3-amine] |
|  | 10 to 100 | CCc1nc2c(F)cc(F)cc2n1-c1nc(N)nc(Nc2ccc(C(F)(F)F)cc2)n1 [Cpd 45, 6-(2-ethyl-4,6-difluoro-1H-benzimidazol-1-yl)-N-[4-(trifluoromethyl)phenyl]-1,3,5-triazine-2,4-diamine] |
|  | 10 to 100 | Nc1nc(Nc2ccc(C(F)(F)F)cc2)nc(-n2c(C3CC3)nc3ccc(F)cc32)n1 [Cpd 62, 6-(2-cyclopropyl-6-fluoro-1H-benzimidazol-1-yl)-N-[4-(trifluoromethyl)phenyl]-1,3,5-triazine-2,4-diamine] |
|  | 10 to 100 | Cc1nc2ccccc2n1-c1nc(N)nc(Nc2ccc(OC(F)F)cc2)n1 [Cpd 4, N-[4-(difluoromethoxy)phenyl]-6-(2-methyl-1H-benzimidazol-1-yl)-1,3,5-triazine-2,4-diamine] |
|  | 10 to 100 | Nc1nc(Nc2ccc(OC(F)F)cc2)nc(-n2c(C(F)F)nc3cc(F)c(F)cc32)n1 [Cpd 115, N-[4-(difluoromethoxy)phenyl]-6-[2-(difluoromethyl)-5,6-difluoro-1H-benzimidazol-1-yl]-1,3,5-triazine-2,4-diamine] |
